Earlier results in patent US10137126B2, “Method of preparing very slightly soluble drug with solid dosage form” (YUNG SHIN PHARM. IND. CO., LTD., priority 2015, dated 2018).

| aqueous solubility | Structure (SMILES) |
| --- | --- |
| 1 g/10,000 ml | C[C@@H](c1ncncc1F)[C@](O)(Cn1cncn1)c1ccc(F)cc1F [Voriconazole] |
| 2 g/1,000,000 ml | CN1CC(=O)N2[C@H](c3ccc4c(c3)OCO4)c3[nH]c4ccccc4c3C[C@@H]2C1=O [Tadalafil] |
| 1 g/1,000 ml | CCC(C)n1ncn(-c2ccc(N3CCN(c4ccc(OCC5COC(Cn6cncn6)(c6ccc(Cl)cc6Cl)O5)cc4)CC3)cc2)c1=O (stereo not drawn) [Itraconazole] |
